In one assay the test system is A375 melanoma cells. Kind of assay: A375 melanoma xenograft model. As to conditions: IRAK-1,-4 inhibitor 35 mg/kg intratumorally, vinblastine 0.25 mg/kg i.p.; control 17 days.
A further assay has as its system A375 cells. In words: Western blot of IRAK phosphorylation in A375. As to conditions: Pam3CysK4 2.5 μg/ml or flagellin 100 ng/ml, 48 hours, FIG. 22B. Type of assay: cell-based, human. The procedure: FIG. 22. Effects of TLR stimulation and cytokines on IRAK phosphorylation in melanoma cells. (A) A375 cells were cultured in the presence of anti-IL-18, anti-CXCL-1, (R&D Systems), anti-IL-1 (BioLegend), or mouse IgG (Sigma-Aldrich) all at 10 μg/ml. Forty-eight hours later the levels of the indicated proteins were determined by western blot. (B) A375 cells, which express p-IRAK-1 and p-IRAK-4, and G361 melanoma cells, which express very low levels of p-IRAK-1 (and express TLR5) were cultured in the presence of TLR1-TLR2 agonist (Pam3CysK4; 2.5 μg/ml) or TLR5 (flagellin; 100 ng/ml; InVivogen). Forty-eight hours later total protein was collected and the levels of the indicated proteins were examined by western blot.
Total cell extracts were prepared from melanoma cells. […] Melanoma tissue arrays were purchased from US Biomax, Inc (Rockville, Md.). For immunohistochemical staining samples were stained with mouse monoclonal anti-human phosphor-IRAK.-4 antibody (Abnova; dilution, 3.5 μg/ml) or normal mouse serum. Tissue histology sections (5-μm-thick) were deparaffinized, hydrated, heated in boiling 10 mmol/L sodium citrate (pH 6.0), for antigen retrieval, for 30 min and washed in Tris buffer. Peroxide blocking was done with 3% […] in methanol at room temperature for 15 min, followed by 10% fetal bovine serum in TBS-t for 30 min at room temperature. Primary antibody incubation was done overnight at 4° C. Secondary antibody incubation with horse anti-mouse (1:200; Vector Laboratories, Burlingame, Calif.) was done for 1 hr, followed by application of diaminobenzidine chromogen for 5 min. The slides were then counterstained with hematoxylin and topped with a coverslip. IHC specimens were analyzed using “quick score” system in which the intensity of the immunohistochemical reaction was scored by multiplying the intensity 1 (weak), 2 (moderate), and 3 (strong) and the proportion of cells staining positively 0 (<10%), 1 (10-25%), 2 (26-50%), 3 (51-75%) or 4 (>75%).

Protocol for A375 melanoma cells: (A-B) NSG mice (n=5) were injected subcutaneously with A375 melanoma cells. When tumors reached a size of approximately 50 mm^2 mice remained untreated or injected intraperitoneally with vinblastine mg/kg; administered every 2 days for 10 days), or peritumorally with IRAK-1,-4 inhibitor (35 mg/kg), or vinblastine plus IRAK.-1,-4 inhibitor. Tumor sizes were calculated by measuring perpendicular by longitudinal diameter;*, P<0.05. Mouse survival data were analyzed using the exact log-rank test;*, P<0.05, **P<0.001.
NOD.Cg-Prkdc^scid Il2rg^tmWJZ; SzJ IL2RG (NSG) mice (Jackson Laboratories, Bar Harbor, Me.) were subcutaneously (s.c.) injected with 2.5×10^6 A375 melanoma cells delivered in PBS. […] When tumors reached a size of approximately 50 mm^2 mice were injected intratumorally (i.t.) with 35 mg/kg of IRAK-1,-4 inhibitor or an equal volume of vehicle (DMSO). Mice were intraperitoneally (i.p.) injected with vinblastine (0.25 mg/kg) every 2 days for 5 days starting on the same day that mice received with IRAK-1,-4 inhibitor. Tumor sizes were analyzed using a mixed model approach for repeated measurements and mouse survival data were analyzed with the exact log-rank test.

In turn, `O=C(Nc1nc2ccccc2n1CCN1CCOCC1)c1cccc([N+](=O)[O-])c1` [IRAK-1,-4 inhibitor] displayed a median survival in the assay with A375 melanoma cells of 19 days.
For the compound “tripalmitoyl-S-(bis(palmitoyloxy)propyl)-Cys-Ser-(Lys)3-Lys [Pam3Cysk4]”, the “p-IRAK-1 or p-IRAK-4 expression levels” value in the assay on A375 cells is given as “remained unchanged”.

For the origin of these results see patent US9464326B2, “Total and phosphorylated IL-1 receptor-associated kinase-1 and IL-1 receptor-associated kinase-4 as a biomarker for cancer progression and chemotherapy resistance” (University of Maryland, Baltimore, priority 2012, dated 2016).
